Assay results reported in BindingDB's records for doi:10.1021/jm800355c (Saarland University, 2008).

Target: T1, Cytochrome P450 11B1, mitochondrial (Homo sapiens, UniProt P15538)
T1 sequence (P15538 whole entry): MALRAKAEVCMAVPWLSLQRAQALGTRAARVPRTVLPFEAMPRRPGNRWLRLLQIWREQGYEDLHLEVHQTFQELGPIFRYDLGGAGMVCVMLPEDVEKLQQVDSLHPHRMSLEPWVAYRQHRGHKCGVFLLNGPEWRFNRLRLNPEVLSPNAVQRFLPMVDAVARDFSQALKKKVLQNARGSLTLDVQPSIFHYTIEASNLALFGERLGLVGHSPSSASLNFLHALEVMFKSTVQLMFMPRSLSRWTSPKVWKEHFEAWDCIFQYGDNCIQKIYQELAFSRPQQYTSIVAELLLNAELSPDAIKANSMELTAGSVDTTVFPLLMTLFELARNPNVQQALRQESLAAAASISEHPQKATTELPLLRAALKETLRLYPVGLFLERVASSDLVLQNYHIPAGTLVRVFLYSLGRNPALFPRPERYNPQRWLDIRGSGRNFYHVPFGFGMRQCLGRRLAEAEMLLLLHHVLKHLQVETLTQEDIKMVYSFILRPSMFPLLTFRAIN
Experiment: CYP11B1 Inhibition Assay
Experimental: The enzyme activity was assayed by monitoring the conversion of deoxycorticosterone to corticosterone in the presence of inhibitor compounds. The product formation was monitored by HPTLC using a phosphoimager system.

IC50: 1.61 µM
SMILES: C[C@]12CC[C@H](O)CC1=CC[C@@H]1[C@@H]2CC[C@]2(C)C(c3cccnc3)=CC[C@@H]12 [ABT]
